Test results: patent publication US20080287405A1, “Compositions and Methods Relating to Protein Kinase Inhibitors” (priority 2004, published 2008)
Counter-ions that a name gives are not always drawn.

Experiments:
bleomycin-injured mice = assay: Murine model of bleomycin-induced pulmonary fibrosis (lung collagen, histology); format: in vivo; conditions: 6 mg/kg IP or oral gavage for 21 days
Source text: Mice were given intratracheal bleomycin (BL) or saline (control). […] A) Lungs were harvested on day 14 following bleomycin injury and total lung collagen determined as described in “Methods”. […] B) Representative histopathology (hematoxylin and eosin staining, top panels; Masson's trichrome blue staining for collagen, bottom panels) of the lungs of mice intra-tracheally instilled with saline (control) or bleomycin (BL). […] Lungs were examined at day 14 following bleomycin injury.
Tissue sections were stained (H&E, mag 100×) 21 days following bleomycin and 14 days after treatment with NL-71-101.
B6129F2/J mice were purchased from Jackson Laboratories, Bar Harbor, Me., and housed under specific pathogen free conditions in enclosed filter top cages. Clean food and water was given ad libitum. The mice were handled and maintained using microisolator techniques with daily veterinarian monitoring. […]
Mice were euthanized by CO2 asphyxiation and perfused via the heart with 5 ml of normal saline. […] Following centrifugation, the pellet was resuspended in 1 ml of alkali reagent, vortexed to release the dye into solution, and 100 μl transferred to a microplate and absorbance measured at 540 nm. Values for experimental samples were calculated based on a standard curve of known concentrations of purified rat tail collagen. […]

ERK-1/2 MAPK = assay: Baseline ERK-1/2 MAPK phosphorylation in normal human lung fibroblasts (IMR-90); format: cell-based; conditions: IMR-90, 24 h, doses indicated in FIG. 9
Experimental: (§1) Mice were treated with Gleevec by IP injection (6 mg/kg) or oral gavage (6 mg/kg) for 21 days. Fibroblasts were isolated from lung explants and cell lysates subjected to SDS-PAGE and immunoblotted for α-SMA. Blots were stripped and re-probed for α-tubulin. Additionally, the effects of Gleevec on pro-fibrotic signaling of fibroblasts by TGF-α1. Normal human lung fibroblasts (IMR-90) were stimulated ±TGF-â1 (2 ng/ml) Gleevec at the doses indicated for 24 h. Cell lysates were then subjected to SDS-PAGE and immunoblotted for specific antibodies to the proteins shown.
(§2) The present invention is not limited to a particular mechanism. Indeed, an understanding of the mechanism is not necessary to practice the present invention.

α-SMA [1] = assay: α-SMA expression in lung fibroblasts isolated from drug-treated bleomycin-injured mice (Western); format: in vivo; conditions: 6 mg/kg IP or oral gavage for 21 days
Source text: C57BL/6J mice were given intratracheal (IT) saline or bleomycin on day 1. […] Fibroblasts were isolated from lung explants on day 14 and expanded in in vitro cell culture. Cells were lysed in RIPA buffer at passage 2 and 90% confluency. Cell lysates were subjected to sodium dodecyl sulfate polyacrylamide gel electrophoresis and immunoblotted with antibodies against α-SMA (a marker of myofibroblast differentiation), phospho-S^473 Akt, and phospho-Y^397 FAK.
Fibroblasts were isolated from lung explants on day 14 and expanded in in vitro cell culture, initially in the presence of 10% fetal bovine serum and then in the absence of serum for 24 h. Cell lysates were obtained and subjected to SDS-PAGE and immunoblotted with antibodies against the proteins indicated.
Mice were treated with Gleevec by IP injection (6 mg/kg) or oral gavage (6 mg/kg) for 21 days. Fibroblasts were isolated from lung explants and cell lysates subjected to SDS-PAGE and immunoblotted for α-SMA. Blots were stripped and re-probed for α-tubulin. Additionally, the effects of Gleevec on pro-fibrotic signaling of fibroblasts by TGF-α1. […]
To determine the result of systemic administration of AG1879 in stable modulation of signaling/phenotype of fibroblasts and myofibroblasts in vivo, fibroblasts isolated from lungs of bleomycin injured mice were analyzed. […]

PKB/Akt [2] = assay: TGF-induced PKB/Akt phosphorylation in normal human lung fibroblasts (IMR-90); format: cell-based; conditions: IMR-90, TGF 2 ng/ml, 24 h
Experimental: as §1, §2

FAK [3] = assay: TGF-induced FAK phosphorylation in normal human lung fibroblasts (IMR-90); format: cell-based; conditions: IMR-90, TGF 2 ng/ml, 24 h
Experimental: as §1, §2

α-SMA [4] = assay: α-SMA expression in normal human lung fibroblasts (IMR-90) ± TGF (Western); format: cell-based
Experimental: as §1
The present invention is not limited to a particular mechanism. Indeed, an understanding of the mechanism is not necessary to practice the present invention. […] Furthermore, these observations emphasize the importance of defining the modulation of fibroblast phenotypes/signaling both in vitro and in vivo.

PKB/Akt [5] = assay: Constitutive PKB/Akt phosphorylation in IPF fibroblasts (Western immunoblot); format: cell-based, human; conditions: 16 h prior to cell lysis
Source text: (§3) Cell lysates were then subjected to SDS-PAGE and immunoblotted with specific antibodies against phospho-S^473 Akt and phospho-Y^397 FAK; blots were stripped and re-probed for total Akt and FAK, respectively.
(§4) Research protocols involving human subjects received prior approval by the Institutional Review Board at the University of Michigan. […] Fibroblasts were also isolated from normal-appearing lung tissue sections surgically removed from patients undergoing evaluation for suspected lung cancer. Cells were cultured in medium consisting of Dulbecco's modified Eagle's medium (DMEM; GIBCO, Grand Island, N.Y.) supplemented with 10% fetal bovine serum (FBS; Sigma, St. Louis, Mo.), 100 U/ml penicillin/streptomycin (Sigma, St. Louis Mo.), and fungizone (GIBCO, Grand Island, N.Y.); medium was changed every two days. Passage 3-5 fibroblasts were plated on 60 mm cell culture dishes at a density of 5×10^5 cells/dish and incubated at 37° C. in 5% CO2-95% air. When cells reached 80% confluence, they were growth-arrested for 48 hours in DMEM with 0.01% FBS prior to treatment with/without TGF-β1.
(§5) Porcine-derived TGF-β1 was obtained from R&D Systems, Minneapolis, Minn. All other cell culture reagents were from Sigma, St Louis, Mo. […] Drugs were initially solubilized in DMSO to make a 30 mM “stock” concentration. […]

PKB/Akt [6] = assay: TGF-β1-induced PKB/Akt phosphorylation in normal fibroblasts (Western immunoblot); format: cell-based, human; conditions: TGF-β1 2 ng/ml, 10 μM drug co-treated, 16 h
Source text: as §3, §4, §5

FAK [7] = assay: TGF-β1-induced FAK phosphorylation in normal fibroblasts (Western immunoblot); format: cell-based, human; conditions: TGF-β1 2 ng/ml, 10 μM drug co-treated, 16 h
Source text: as §3, §4, §5

SMILES	efficacy as an anti-fibrotic agent (bleomycin-injured mice)	baseline phosphorylation of ERK-1/2 MAPK (ERK-1/2 MAPK)	expression of α-SMA in lung fibroblasts cultured from treated mice (α-SMA [1])	TGF-α1-induced phosphorylation/activation of PKB/Akt (PKB/Akt [2])	TGF-α1-induced phosphorylation/activation of FAK (FAK [3])	baseline α-SMA expression (α-SMA [4]; IMR-90, 24 h, no TGF)	TGF-α1-induced α-SMA expression (α-SMA [4]; IMR-90, TGF 2 ng/ml, 24 h)	inhibition of constitutive PKB/Akt phosphorylation at 10 μM (PKB/Akt [5])	inhibition of TGF-β1-induced PKB/Akt phosphorylation (PKB/Akt [6])	inhibition of TGF-β1-induced FAK phosphorylation (FAK [7])
Cc1ccc(NC(=O)c2ccc(CN3CCN(C)CC3)cc2)cc1Nc1nccc(-c2cccnc2)n1 [Gleevec, imatinib mesylate]	not to be effective	dose-dependently enhanced	enhanced expression	promoted/enhanced	promoted/enhanced	modest reductions	does not inhibit			
Nc1ncnc2c1cnn2-c1ccccc1 [c/AG, 4-Amino-7-phenylpyrazol[3,4-d]pyramidine]								no effect	no effect	no effect
